The values below come from patent US4324788A, “Alkoxyalkylidenhydrazinopridazines and process for their preparation” (I.S.F. S.p.A., priority 1979, dated 1982).

The nature of one series: in vivo. The note with it: mouse, ip.
In series [1] the test system is genetically hypertensive rats. Nature of the series: Arterial pressure and heart rate per os in genetically hypertensive rats (SHR). In kind it is in vivo, rat (genetically hypertensive. The note with it: for HR DE25 (ED25, dose giving an increase of the heart rate of 25%): > = no increase of the heart rate at the maximal tested dose; for ED25: po, read-out: BP DE25 (ED25, dose giving a drop of the blood pressure of 25%). The source says: activity on the arterial pressure and on the heart rate has been studied per os in genetically hypertensive rats according to the method described in Pharm. Research Comm.

For series [2], the system named is guinea-pig isolated atria. The note with it: isoprenaline agonist, product at 10^-4 M.
Another series has as its system strips of rabbit aorta. The series is described as follows: Spasmolytic activity in vitro on strips of rabbit aorta with potassium chloride induced spasm. In kind it is cell-based. Particulars: Oryctolagus cuniculus, spasm with 30 mM potassium chloride, read-out: EC50 (relaxing 50% the strip of rabbit aorta). How it is done:
spasmolytic activity is determined evaluating the direct relaxant effect on the vasal smooth muscle in vitro on strips of rabbit aorta in which spasm was induced by potassium chloride according to the method described in Journ. of Pharm. and Exper. […] The products were added at sequentially cumulative molar doses and their activity indicated as Effective Concentration (EC50).

The mark [3] stands for this setting: SHR rat, per os, at the moment of maximum effect.

Where a name gives a salt, the structure may show the parent alone. Read-outs that look alike come from different tables or passages of the source. Where only a bound is given, the exact number is not on record here.

For `CC(C)=NNc1ccc(OCC(O)CNC(C)(C)C)nn1` (stereo not drawn) [3-(3-t.Butylamino-2-hydroxypropoxy)-6-isopropylidenhydrazinopyridazine dihydrochloride], the LD50 in “in vivo” turned out to be 500 mg/kg. Further, the “HR DE25 (ED25, dose giving an increase of the heart rate of 25%)” value in series [1] (SHR rat, per os) is over 100 mg/kg/os. The ED25 in series [1] (setting [3]) was determined as 50 mg/kg. Moreover, in series [2], the “DR4 (dose ratio of agonist EC50 in the presence and in the absence of the product)” value turned out to be 78.

As to `CC(CCc1ccccc1)NCC(O)c1ccc(O)c(C(N)=O)c1` (stereo not drawn) [Labetalol, reference compound], the half-maximal effective concentration (EC50) in the series on strips of rabbit aorta was over 10000 µM. Besides, the “HR DE25 (ED25, dose giving an increase of the heart rate of 25%)” value in series [1] (SHR rat, per os) was over 100 mg/kg/os. In addition, the ED25 in series [1] (setting [3]) worked out at 400 mg/kg.

With `NNc1nncc2ccccc12` [Hydralazine, reference compound], in the series with strips of rabbit aorta, the concentration giving a half-maximal response (EC50) came out at 680 µM. In addition, the “HR DE25 (ED25, dose giving an increase of the heart rate of 25%)” value in series [1] (SHR rat, per os) is given as 6.0 mg/kg/os. Also, in series [1] (setting [3]), the ED25 came out at 8.1 mg/kg. Moreover, in series [2], the “DR4 (dose ratio of agonist EC50 in the presence and in the absence of the product)” value is recorded as 1.

Turning to `CCC(C)NCC(O)COc1ccc(NN=C(C)C)nn1.Cl.Cl` (stereo not drawn) [3-[3-(2-butyl)amino-2-hydroxypropoxy]6-isopropylidenhydrazinopyridazine dihydrochloride], the LD50 in the series “in vivo” is 300 mg/kg. The “HR DE25 (ED25, dose giving an increase of the heart rate of 25%)” value in series [1] (SHR rat, per os) is reported as over 50 mg/kg/os. The ED25 in series [1] (setting [3]) came to 25 mg/kg. Moreover, in series [2], the “DR4 (dose ratio of agonist EC50 in the presence and in the absence of the product)” value turned out to be 72.

Compound `CC(C)=NNc1ccc(OCC(O)CNC(C)C)nn1.Cl.Cl` (stereo not drawn) [3-(3-Isopropylamino-2-hydroxypropoxy)-6-isopropylidenhydrazinopyridazine dihydrochloride] had an LD50 in the series “in vivo” of 500 mg/kg. Besides, the EC50 with strips of rabbit aorta was 1700 µM. Moreover, the “HR DE25 (ED25, dose giving an increase of the heart rate of 25%)” value in series [1] (SHR rat, per os) is listed as over 100 mg/kg/os. For the same compound, the ED25 in series [1] (setting [3]) is 350 mg/kg. The “DR4 (dose ratio of agonist EC50 in the presence and in the absence of the product)” value in series [2] is 77.

Regarding `CC(C)=NNc1ccc(OCC(O)CNC(C)CCc2ccccc2)nn1.Cl.Cl` (stereo not drawn) [3-[3-(4-phenyl-2-butyl)amino-2-hydroxypropoxy]6-isopropylidenhydrazinopyridazine dihydrochloride], in the series “in vivo”, the LD50 turned out to be 200 mg/kg. Further, in series [1] (SHR rat, per os), the “HR DE25 (ED25, dose giving an increase of the heart rate of 25%)” value is reported as over 40 mg/kg/os. Moreover, the ED25 in series [1] (setting [3]) is 17 mg/kg. In addition, the “DR4 (dose ratio of agonist EC50 in the presence and in the absence of the product)” value in series [2] came to 80.

Take `CC(C)NCC(O)COc1cccc2ccccc12` (stereo not drawn) [Propanolol, reference compound]: the ED25 in series [1] (Rattus norvegicus) is over 400 mg/kg. For the same compound, the “HR DE25 (ED25, dose giving an increase of the heart rate of 25%)” value in series [1] (SHR rat, per os) was over 100 mg/kg/os.

In turn, `COc1ccc(CCNCC(O)COc2ccc(NN=C(C)C)nn2)cc1OC.Cl.Cl` (stereo not drawn) [3-{3[2(3,4-dimethoxyphenyl)ethyl]amino-2-hydroxypropoxy}6-isopropylidenhydrazinopyridazine dihydrochloride] gave an LD50 in the series “in vivo” of 300 mg/kg. The “HR DE25 (ED25, dose giving an increase of the heart rate of 25%)” value in series [1] (SHR rat, per os) is recorded as over 60 mg/kg/os. In addition, in series [1] (setting [3]), the ED25 was determined as 39 mg/kg. Besides, the “DR4 (dose ratio of agonist EC50 in the presence and in the absence of the product)” value in series [2] was found to be 531.

A word on the LD50: it is the dose expected to kill half of the subjects tested. As usually defined, the EC50 is the midpoint of the concentration-response curve.
